Source: article PMC2033360, “Effects of a new antioestrogen, idoxifene, on cisplatin- and doxorubicin-sensitive and -resistant human ovarian carcinoma cell lines” (British Journal of Cancer, 1994)
pIC50: −log10 of the molar value. Read-outs that look alike come from different tables or passages of the source.

Legend:
CH1cisR6 cells [1] = experiment: DNA interstrand cross-link repair by alkaline elution, CH1cisR6; type: cell-based, human
Source text: (§1) Sary Pyroidno-4-iodotamoxifen (idoxifene) is a new non-steroidal antioestrogen currently undergoig phase I clnical evaluation. […] One agent that has featured in studies of both doxorubicin and cilatin resist- ance has been the extensively used antioestrogen tamoxifen. […] Tlhe purposes of this study were 3-fold. Initially, using a series of tamoxifen analogues of known inhibitory constants for calmodulin, the effect of increasing calmodulin inhibition on cytotoxicity against four human ovarian carcnoma cell lines was determined. […] Materials and mehod Drugs and chemicals The structures of tamoxifen and the various analogues of tamoxifen used are illustrated in Figure 1. […] Calmidazolium (R24571), Correspondence: L.R. Kelland, Drug Development Section, The Institute of Cancer Research, Block E, 15 Cotswold Road, Sutton, Surrey SM2 5NG, UK. […] Cytotoxicity data were then fitted to regression lines, and the concentration of each drug which produced a given level of cytotoxicity (fractional effect, Fa) alone or in combination was determined. Combination index (CI) for a given Fa was calculated as: CI = d' + td D-1 + D2 where DI and D2 are the doses of drugs 1 and 2, which by themselves produce a given Fa (i.e. IC5o); d' and d2 are the doses which produce the same Fa in combination. […]

CH1cisR6 cells [2] = conditions: acquired cisplatin-resistant line versus parent
41McisR6 cells [3] = experiment: SRB cytotoxicity assay, 41McisR6; type: cell-based, human; conditions: acquired cisplatin-resistant line versus parent
[4] = tested on: four human ovarian carcinoma cell lines; experiment: cells; conditions: read-out: mean IC50 across four human ovarian carcinoma cell lines (cytotoxicity)
Source text: as §1

CH1 cells [5] = experiment: DNA interstrand cross-link repair by alkaline elution, CH1; type: cell-based, human
Source text: as §1

CH1cisR6 cells [6] = experiment: Intracellular platinum accumulation (flameless atomic absorption), CH1cisR6; type: cell-based, human; conditions: 2 h exposure to cisplatin alone or with 2 microM idoxifene
Source text: as §1

[7] = target: T1, calmodulin-dependent cyclic AMP phosphodiesterase (Homo sapiens, UniProt P0DP23); design: method as in Rowlands et al., 1990; conditions: values taken from previous determinations; ref Rowlands et al., 1990; read-out: calmodulin IC50 (inhibition of calmodulin-dependent cyclic AMP phosphodiesterase); cited from earlier work
[8] = tested on: human ovarian carcinoma cell lines; experiment: Highest non-toxic concentration of the resistance modifiers, preliminary experiments; type: cell-based; conditions: <10% cell kill in any one cell line; continuous drug exposure
Source text: as §1

41McisR6 cells [9] = experiment: Intracellular platinum accumulation (flameless atomic absorption), 41McisR6; type: cell-based, human; conditions: 2 h exposure to cisplatin alone or with 2 microM idoxifene
Source text: as §1

41MdoxR cells = experiment: SRB cytotoxicity assay, 41MdoxR; conditions: for Rf, resistance factor (IC50 resistant line/IC50 parent line), 41MdoxR/41M: doxorubicin resistance
Source text: (§2) Sary Pyroidno-4-iodotamoxifen (idoxifene) is a new non-steroidal antioestrogen currently undergoig phase I clnical evaluation. […] One agent that has featured in studies of both doxorubicin and cilatin resist- ance has been the extensively used antioestrogen tamoxifen. […] Tlhe purposes of this study were 3-fold. Initially, using a series of tamoxifen analogues of known inhibitory constants for calmodulin, the effect of increasing calmodulin inhibition on cytotoxicity against four human ovarian carcnoma cell lines was determined. […] Materials and mehod Drugs and chemicals The structures of tamoxifen and the various analogues of tamoxifen used are illustrated in Figure 1. […] Calmidazolium (R24571), Correspondence: L.R. Kelland, Drug Development Section, The Institute of Cancer Research, Block E, 15 Cotswold Road, Sutton, Surrey SM2 5NG, UK. […] Briefly, the analysis compares the effects of drug combinations to the effects of individual drugs across the entire dose-effect range. Cytotoxicity data were then fitted to regression lines, and the concentration of each drug which produced a given level of cytotoxicity (fractional effect, Fa) alone or in combination was determined. Combination index (CI) for a given Fa was calculated as: CI = d' + td D-1 + D2 where DI and D2 are the doses of drugs 1 and 2, which by themselves produce a given Fa (i.e. IC5o); d' and d2 are the doses which produce the same Fa in combination. CI= I indicates zero interaction (additive cytotoxicity), CI <I indicates synergy and CI> 1 indicates antagonism (Chou computer program, Biosoft). […] All cell lines were grown as monolayers in Dulbecco's modified Eagle medium (DMEM) supplemented with 10% heat-iactivated fetal calf serum (Imperial Laboratores, Andover, UK), 50 gml-' gentamic 2.5 jg ml-' ampho- tericin B, 2 mM L-glutmie 10 jag ml- insulin and 0.5 jgmml' hydrocorisone in a 10% carbon dioxide, 90% air atmosphere. […] Assssment of cytotoxicity Tamoxifen and the analogues of tamoxifen were dissolved immediately before use in absolute ethanol at 20 mM. […]

CH1 cells [10] = experiment: SRB cytotoxicity assay, CH1; conditions: Homo sapiens, CH1, read-out: 96 h IC50, doxorubicin cytotoxicity, CH1
CH1doxR cells = experiment: SRB cytotoxicity assay, CH1doxR; conditions: for Rf, resistance factor (IC50 resistant line/IC50 parent line), CH1doxR/CH1: doxorubicin resistance
Source text: as §2

41M cells = experiment: SRB cytotoxicity assay, 41M; conditions: Homo sapiens, read-out: 96 h IC50, doxorubicin cytotoxicity, 41M
Source text: as §1

[11] = target: T1, calmodulin-dependent cyclic AMP phosphodiesterase; experiment: Inhibition of calmodulin-dependent cyclic AMP phosphodiesterase; type: biochemical; conditions: unpublished data of the authors
Source text: as §1

[12] = after 2 h cisplatin 25 microM, removal in presence of 2 microM idoxifene
[13] = after 2 h exposure to cisplatin 25 microM, removed at 2 h versus 5 h (so in the source)

Structure (SMILES): CC/C(=C(\c1ccc(I)cc1)c1ccc(OCCN2CCCC2)cc1)c1ccccc1 [idoxifene, Pyrrolidino-4-iodotamoxifen]
- effect on rate of DNA interstrand cross-link (ISC) removal, CH1cisR6 (CH1cisR6 cells [1]; [12]): did not markedly affect
- Rf, resistance factor (IC50 resistant line/IC50 parent line), CH1cisR6/CH1 (CH1cisR6 cells [2]): < 1
- Rf, resistance factor (IC50 resistant line/IC50 parent line), 41McisR6/41M (41McisR6 cells [3]): < 1
- pIC50 [4]: 5.35
- effect on rate of DNA interstrand cross-link (ISC) removal, CH1 (CH1 cells [5]; [12]): did not markedly affect
- effect on platinum uptake, CH1cisR6 (CH1cisR6 cells [6]): no difference in uptake
- pIC50 [7]: 5.85
- highest non-toxic concentration [8]: 2 µM
- effect on platinum accumulation, 41McisR6 (41McisR6 cells [9]): no significant difference

Structure (SMILES): CC/C(=C(\c1ccccc1)c1ccc(OCCN(C)C)cc1)c1ccccc1 [tamoxifen]
- Rf, resistance factor (IC50 resistant line/IC50 parent line), CH1cisR6/CH1 (CH1cisR6 cells [2]): < 1
- Rf, resistance factor (IC50 resistant line/IC50 parent line), 41McisR6/41M (41McisR6 cells [3]): < 1
- pIC50 [4]: 5.20
- highest non-toxic concentration [8]: 4 µM

Structure (SMILES): Clc1ccc(C(c2ccc(Cl)cc2)n2cc[n+](CC(OCc3ccc(Cl)cc3Cl)c3ccc(Cl)cc3Cl)c2)cc1 (stereo not drawn) [calmidazolium]
- Rf, resistance factor (IC50 resistant line/IC50 parent line), CH1cisR6/CH1 (CH1cisR6 cells [2]): < 1
- Rf, resistance factor (IC50 resistant line/IC50 parent line), 41McisR6/41M (41McisR6 cells [3]): < 1

Structure (SMILES): COc1cccc2c1C(=O)c1c(O)c3c(c(O)c1C2=O)C[C@@](O)(C(=O)CO)C[C@@H]3O[C@H]1C[C@H](N)[C@H](O)[C@H](C)O1 [doxorubicin]
- pIC50 (41MdoxR cells; Homo sapiens, read-out: 96 h IC50, doxorubicin cytotoxicity, 41MdoxR): 6.55
- Rf, resistance factor (IC50 resistant line/IC50 parent line), 41MdoxR/41M (41MdoxR cells): approximately 7
- Rf, resistance factor (IC50 resistant line/IC50 parent line), 41MdoxR/41M (41MdoxR cells; listed as Doxorubicin): 7.2
- pIC50 (CH1 cells [10]): 8.28
- pIC50 (CH1doxR cells; Homo sapiens, read-out: 96 h IC50, doxorubicin cytotoxicity, CH1doxR): 6.34
- Rf, resistance factor (IC50 resistant line/IC50 parent line), CH1doxR/CH1 (CH1doxR cells): ~90
- Rf, resistance factor (IC50 resistant line/IC50 parent line), CH1doxR/CH1 (CH1doxR cells; listed as Doxorubicin): 87
- pIC50 (41M cells): 7.41

Structure (SMILES): CC/C(=C(/c1ccc(I)cc1)c1ccc(OCCN(C)C)cc1)c1ccccc1 [4-iodotamoxifen]
- Rf, resistance factor (IC50 resistant line/IC50 parent line), CH1cisR6/CH1 (CH1cisR6 cells [2]): < 1
- Rf, resistance factor (IC50 resistant line/IC50 parent line), 41McisR6/41M (41McisR6 cells [3]): < 1

Structure (SMILES): CC/C(=C(/c1ccc(OCCN(C)C)cc1)c1cccc(O)c1)c1ccccc1 [3-hydroxytamoxifen]
- pIC50 [11]: 4.89
- Rf, resistance factor (IC50 resistant line/IC50 parent line), CH1cisR6/CH1 (CH1cisR6 cells [2]): < 1
- Rf, resistance factor (IC50 resistant line/IC50 parent line), 41McisR6/41M (41McisR6 cells [3]): < 1

Structure (SMILES): N.N.[Cl][Pt][Cl] [cisplatin, cis-diamminedichloroplatinum (II)]
- removal of cross-links, CH1cisR6 (CH1cisR6 cells [1]; [13]): 90%
- removal of cross-links, CH1 (CH1 cells [5]; [13]): 15%
